Assay results as given in patent EP0230013A1, “New anthracycline derivatives, uses thereof as antitumor agent and production thereof” (ZAIDAN HOJIN BISEIBUTSU KAGAKU KENKYU KAI, priority 1985, dated 1987).
Like-named read-outs stand apart in the source and are kept apart here.

Experiments:
[1] = Acid hydrolysis of the glycoside linkage, analysed by TLC (Test 2); type: physicochemical
Description: A further advantage of the anthracycline derivatives of formula (I) according to this invention is in that the susceptibility of the glycoside linkage to be broken by acid hydrolysis is very low. This is, we believe, to be one of reasons why the compounds of this invention are of low toxicity. […] Of course, a high chemical stability of a compound in vitro is not always related to its stability against hydrolysis in vivo, but it may be assumed in view of high anticancer effects in vivo of the compounds of this invention that the glycoside linkage of those compounds is of high stability in vivo, too. In any case, it is true that such high chemical stability of the glycoside linkage of the compounds of this invnetion is advantageous in that it makes the handling of those compounds easy in chemical applications. Test 2 given below illustrates the high stability of the glycoside linkage of the compounds of this invention.
Daunomycin (I mg) was dissolved in a mixture (0.1 ml) of 0.2 N^*HCI-80% CH3CN-H,O (^* the 0.2 N concentration of HCI being of the said mixture) and the solution was heated in an oil bath at 61 -62°C for 30 minutes to cause the hydrolysis. […] The reaction solution was allowed to stand at room temperature to deposit daunomycinone as red crystals.
FTDM (0.7 mg) was suspended in a mixture (0.1 ml) of 0.2 N HCI-80% CH,CN-H20 and the suspension was stirred in an oil bath at 61 -62°C for 30 minutes.
A futher amount (0.3 ml) of the mixture of 0.2N HCI-80% CH3CN-H20 was added to the reaction mixture, when the mixture substantially became a solution with a little amount of insolubles. Then, it was heated to 61-62°C under stirring to give a homogeneous solution.

Leukemia L-1210 cells = test: Antitumor activity on leukemia in mice caused by Leukemia L-1210 cells (Test I); type: in vivo; parameters: key: *: shows that a toxicity or its sign of the compound tested in the animals tested such as death due to toxicity or weight loss was observed; conditions: L-1210 mice
Protocol: Antitumor activity on leukemia in CDF, mice caused by Leukemia L-1210 cells
In this test, Compound Nos. I and 2 of this invention were assessed in comparison with daunomycin and adriamycin on their tumor inhibitory activity against leukemia in mice. Thus, CDF, mice were intraperitoneally transplanted with cells of Leukemia L-1210 (I ^x 10^5 cells/mouse). From 24 hours after i.p. transplantation of L 1210 cells, each compound to be tested was administered intraperitoneally for 9 consecutive days at once per day. Observation was made for 60 days where survival days of each mouse tested were recorded and percentage increase in lifespan of the treated mice, in comparison with control test wherein mice were treated only, with the administration of physiological saline, was calculated as T/C % where T is the mean survival days of the treated animals and C is the mean survival days of the untreated control animals.The test results are shown in Table I.

Leukemia L-1210 = conditions: dosage of 25 mg/kg, single dose per day, intraperitoneally for 9 days, Leukemia L-1210 mice; cited from earlier work
Leukemia P 388 = conditions: cited from earlier work
[2] = 0.2 N HCl-80% CH3CN-H2O, 61 -62°C (about 60°C), 30 minutes
[3] = Dose 5 mg/kg/day i.p. for 9 days

## COc1cccc2c1C(=O)c1c(O)c3c(c(O)c1C2=O)C[C@@](O)(C(C)=O)C[C@@H]3O[C@@H]1O[C@@H](C)[C@@H](O)[C@@H](O)[C@H]1F [Compound No. 1, 7-O-(2,6-dideoxy-2-fluoro-α-L-talopyranosyl)daunomycinone]
[1]; [2]
  acid hydrolysis (TLC): presence of the spot of FTDM only
[1]; 0.2N HCl-80% CH3CN-H2O, 61-62°C, further 3 hours
  acid hydrolysis (TLC): the spot of FTDM only
[1]; 1 N HCl in acetonitrile-water (4:1), 61-62°C (about 60°C), 8 hours, listed as Compound No. I
  acid hydrolysis (TLC): remains substantially as it is,without being decomposed
[1]; 1 N HCl in acetonitrile-water (4:1), 61-62°C (about 60°C), 8 hours, listed as FTDM
  acid hydrolysis (TLC): a spot of a trace amount of daunomycinone appeared, but most of FTDM was also present as it was

## COc1cccc2c1C(=O)c1c(O)c3c(c(O)c1C2=O)C[C@@](O)(C(=O)CO)C[C@@H]3O[C@H]1C[C@H](N)[C@H](O)[C@H](C)O1 [Adriamycin, adriamycin]
Leukemia L-1210 cells; [3]
  toxicity or its sign (death due to toxicity or weight loss): *

## COc1cccc2c1C(=O)c1c(O)c3c(c(O)c1C2=O)C[C@@](O)(C(C)=O)C[C@@H]3O[C@H]1C[C@H](N)[C@H](O)[C@H](C)O1 [Daunomycin, daunomycin]
[1]; [2]
  acid hydrolysis (TLC): disappearance of the spot of daunomycin
[1]; 0.2 N HCl-80% CH3CN-H2O, 61 -62°C (about 60°C), 30 minutes, listed as daunomycin
  acid hydrolysis (TLC): completely decomposed
Leukemia L-1210 cells; Dose 2.5 mg/kg/day i.p. for 9 days
  toxicity or its sign (death due to toxicity or weight loss): *
Leukemia L-1210 cells; [3]
  toxicity or its sign (death due to toxicity or weight loss): *

## COc1cccc2c1C(=O)c1c(O)c3c(c(O)c1C2=O)C[C@@](O)(C(C)=O)C[C@@H]3O[C@@H]1O[C@@H](C)[C@H](OC(C)=O)[C@@H](OC(C)=O)[C@H]1I [Compound NSC 331,962, 7-O-(3,4-di-O-acetyl-2,6-dideoxy-2-iodo-a-L-mannohexopyranosyl) daunomycinone]
Leukemia L-1210
  increase (in %) of survival days of the mice treated, as compared to the mice untreated (T/C, %): 196%
Leukemia P 388; dosage of 50 mg/kg, Leukemia P 388 mice
  increase (in %) of survival days of the mice treated, compared to the mice untreated (T/C, %): 247%

## COc1cccc2c1C(=O)c1c(O)c3c(c(O)c1C2=O)C[C@@](O)(C(C)=O)C[C@@H]3O[C@@H]1O[C@@H](C)[C@@H](OC(C)=O)[C@@H](OC(C)=O)[C@H]1I [Compound NSC 327,472, 7-O-(3,4-di-O-acetyl-2,6-dideoxy-2-iodo-a-L-talohexopyranosyl)daunomycinone]
Leukemia P 388; dosage of 12.5 mg/kg to 25 mg/kg
  increase (%) of survival days of the Leukemia P 388-inoculated mice treated: 172%
Leukemia P 388; dosage of 150 mg/kg
  increase (%) of survival days of the Leukemia P 388-inoculated mice treated: 162%
